Laboratory results: patent publication US6552009B2, “Compositions and methods of treating abnormal cell proliferation” (Gentrix LLC, priority 1998, dated 2003)

Test system: moderate to severe papular-pustular acne
Type: in vivo, human
Conditions: for skin irritation: human, in vivo
Experimental: This example compares therapeutically applied retinyl palmitate, retinoic acid, calcitriol, and combinations thereof in a cream at different concentrations with the effectiveness of the cream without any of the above compounds present in treating acne. The base cream used to prepare the experimental formulations is the commercially available […] cream. The different compounds at different concentrations were added to the cream and mixed very well. Sixty six volunteers were recruited and were randomly assigned to each of the groups. the subjects were selected on the basis of their having moderate to severe papular-pustular acne. Each group consisted of 3 males and 3 females. No other acne treatment was permitted during the period. Preparations were applied to the face in the morning and evening after washing the face with ordinary soap. Observations were made at time 0, 1, 4, and 8 weeks to assure that treatment was carried out according to direction. Judgments of “worse”, “no change”, “mild”, and “good” were made after 8 weeks of treatment.

SMILES | skin irritation | improvement in treating acne versus lower concentrations (concentrations at about 1.5% and more)
CC1=C(/C=C/C(C)=C/C=C/C(C)=C/CO)C(C)(C)CCC1=O [4-oxo-retinol] | did not | –
C=C1/C(=C\C=C2/CCC[C@]3(C)[C@@H]([C@H](C)CCCC(C)(C)O)CC[C@@H]23)C[C@@H](O)C[C@@H]1O [calcitriol, reference compound] | caused skin irritation | –
CC1=C(/C=C/C(C)=C/C=C/C(C)=C/C(=O)O)C(C)(C)CCC1 [retinoic acid, reference compound] | caused skin irritation | –
CCCCCCCCCCCCCCCC(=O)OC/C=C(C)/C=C/C=C(C)/C=C/C1=C(C)CCCC1(C)C [retinyl palmitate] | did not | remarkable improvement over lower concentrations
